From ChEMBL document CHEMBL1135908, “Synthesis and biological evaluation of cycloalkylidene carboxylic acids as novel effectors of Ras/Raf interaction” (J Med Chem, 2002)

Experiment: Cytotoxicity of compound towards Y190 yeast cells
Format: functional, cell-based
Details: Saccharomyces cerevisiae

COc1ccc(C2CCC(=C(C)C(=O)O)CC2)cc1 (stereo not drawn)
EC50: 130 µM

CC(C(=O)O)=C1CCC(c2ccccc2)CC1 (stereo not drawn)
EC50: 143 µM

O=C(O)C=C1CCCC1
EC50: > 300 µM

O=C(O)C=C1CCCCCC1
EC50: > 300 µM

CC(C(=O)O)=C1CCCC1
EC50: > 300 µM

C/C(C(=O)O)=C1\CCCC(C)C1 (stereo not drawn)
EC50: > 300 µM

CCCC1CCC(=C(C)C(=O)O)CC1 (stereo not drawn)
EC50: 74 µM

CCC1CCC(=C(C)C(=O)O)CC1 (stereo not drawn)
EC50: 125 µM

CC(C(=O)O)=C1CCCCC1
EC50: > 300 µM

CC(C(=O)O)=C1CCC(C)CC1 (stereo not drawn)
EC50: > 300 µM

CC(C(=O)O)=C1CCC(C(C)(C)C)CC1 (stereo not drawn)
EC50: 81 µM

CC(C(=O)O)=C1CCCCCC1
EC50: > 300 µM

O=CC=C1CCCCCC1
EC50: > 300 µM
